The term MIC denotes the smallest concentration in the dilution series that meets the test's criterion for growth inhibition.

Some test systems named below: Candida krusei ATCC 6258; Escherichia coli NDM; Streptococcus pyogenes; Escherichia coli W3110; Listeria monocytogenes; Escherichia coli K88.
Holding throughout (experiment): ≥ marks a high value that may be exact or a test limit, other limits are often not marked, values filed in µg/mL are converted to µM
The subject of assay [1] is Enterococcus faecium ATCC 29212.
The subject of assay [2] is Candida albicans ATCC 90028.
The subject of assay [3] is Escherichia coli O157:H7 ATCC 43895.
Assay [4] concerns Trichosporon beigelii KCTC 7707.
For assay [5], the system named is Malassezia furfur KCTC 7744.
Assay [6] has as its system Streptococcus mutans KCTC 3065.
The subject of assay [7] is Vibrio vulnificus ATCC 29307.
The test system of assay [8] is Pseudomonas aeruginosa ATCC 27853.
Assay [9] relates to Staphylococcus aureus ATCC 25923.
Assay [10] deals with Escherichia coli ATCC 12795.
The test system of assay [11] is Serratia marcescens ATCC 14756.
Assay [12] deals with Staphylococcus aureus ATCC 29213.
In assay [13] the test system is Klebsiella pneumoniae ATCC 10031.
Assay [14] deals with Enterococcus faecalis ATCC 29212.
Assay [15] relates to Mannheimia haemolytica 82-25.
Assay [16] concerns Pseudomonas aeruginosa ATCC 27312.
Assay [17] relates to Escherichia coli ATCC 9723H.
The test system of assay [18] is Pseudomonas aeruginosa ATCC 10148.
Assay [19] has as its system Escherichia coli ATCC 25922.
Assay [20] has as its system Staphylococcus aureus ATCC 6538P.
Assay [21] concerns Klebsiella pneumoniae ATCC BAA-1705.
Assay [22] has as its system Staphylococcus aureus WKZ2.
Assay [23] concerns Salmonella enterica subsp. enterica serovar Typhimurium ATCC 14028.
The subject of assay [24] is Pseudomonas aeruginosa RP73.
Assay [25] concerns Salmonella enterica subsp. enterica serovar Enteritidis 706 RIVM.
The subject of assay [26] is Pseudomonas aeruginosa PAO1.
Assay [27] relates to Escherichia coli ATCC 35218.
Assay [28] relates to Klebsiella pneumoniae CMCC 46117.
Assay [29] concerns Shigella flexneri ATCC 12022.
For assay [30], the system named is Bacillus subtilis ATCC 63501.
Assay [31] has as its system Salmonella enterica ATCC H9812.
For assay [32], the system named is Shigella dysenteriae CMCC 51252.
Assay [33] concerns Shigella flexneri CMCC 51572.
The subject of assay [34] is Salmonella typhimurium CMCC 50115.
The test system of assay [35] is Escherichia coli ATCC 25922 ΔsbmA.

In brackets after ≈: the same amount, converted by molar mass. Several values for one entry are separate records, joined by “and”; a condition that tells them apart may be missing. Identical values can stand only once.

With `CSCC[C@H](NC(=O)CNC(=O)[C@H](C)NC(=O)[C@H](C)N)C(=O)NCC(=O)N[C@@H](Cc1ccccc1)C(=O)N[C@@H](Cc1ccccc1)C(=O)NCC(=O)N[C@@H](C)C(=O)N[C@@H](CCCN=C(N)N)C(N)=O` [AAGMGFFGAR], the MIC in assay [1] was 25.4 µM (≈ 25 µg/mL); in assay [2] it was 25.4 µM (≈ 25 µg/mL); in assay [3] it was 12.7 µM (≈ 12.5 µg/mL); in assay [4], 12.7 µM (≈ 12.5 µg/mL); in assay [5], no less than 50.9 µM; in [6] it was 12.7 µM (≈ 12.5 µg/mL). Moreover, the MIC in assay [7] came out at 25.4 µM (≈ 25 µg/mL); in assay [8], 12.7 µM (≈ 12.5 µg/mL); in assay [9], 25.4 µM (≈ 25 µg/mL).

As for `N[C@@H](CC(=O)O)C(=O)N[C@@H](CC(=O)O)C(=O)N[C@@H](CC(=O)O)C(=O)N[C@@H](CC(=O)O)C(=O)N[C@@H](CC(=O)O)C(=O)N[C@@H](CC(=O)O)C(=O)N[C@@H](CC(=O)O)C(=O)O` [DDDDDDD], the MIC in [10] was no less than 570 µM; in assay [11] it was no less than 1500 µM; against Candida krusei ATCC 6258 it was no less than 3.19 mM; in assay [12], 940 µM (≈ 774 µg/mL); in [13], no less than 800 µM; in assay [14], 1160 µM (≈ 955 µg/mL). Besides, the results for the MIC in [15] and in [16] were no less than 80 µM and no less than 1500 µM, respectively.

`CC[C@H](C)[C@H](NC(=O)[C@@H](NC(=O)[C@@H]1CCCN1C(=O)[C@H](Cc1ccccc1)NC(=O)[C@@H](N)Cc1ccccc1)[C@@H](C)CC)C(=O)N[C@@H](C)C(=O)N[C@@H](CCCN=C(N)N)C(=O)N[C@@H](CC(C)C)C(=O)N[C@@H](C)C(=O)N[C@@H](C)C(=O)N[C@@H](CCCCN)C(=O)N[C@H](C(=O)N[C@H](C(=O)N1CCC[C@H]1C(=O)N[C@@H](CO)C(=O)N[C@@H](CC(C)C)C(=O)N[C@H](C(=O)N[C@@H](CS)C(=O)N[C@@H](C)C(=O)N[C@H](C(=O)N[C@H](C(=O)N[C@@H](CCCCN)C(=O)N[C@@H](CCCCN)C(=O)N[C@@H](CS)C(=O)O)[C@@H](C)O)C(C)C)C(C)C)[C@@H](C)CC)C(C)C` [FFPIIARLAAKVIPSLVCAVTKKC]: the MIC in the assay on Escherichia coli NDM is 3.46 µM (≈ 8.97 µg/mL); in [17], 4.24 µM (≈ 11 µg/mL); in assay [18], no less than 35 µM; in assay [19], 3.46 µM (≈ 8.97 µg/mL); against Streptococcus pyogenes, no less than 35 µM; in assay [20], 1.73 µM (≈ 4.48 µg/mL).

In the case of `CC[C@H](C)[C@H](N)C(=O)N[C@@H](Cc1c[nH]c2ccccc12)C(=O)N[C@@H](Cc1c[nH]c2ccccc12)C(=O)N[C@@H](C)C(=O)N[C@@H](CCCCN)C(=O)N[C@@H](Cc1c[nH]c2ccccc12)C(=O)NCC(=O)N[C@@H](CC(C)C)C(=O)N[C@@H](CCCCN)C(=O)N[C@@H](CC(C)C)C(=O)N[C@@H](CC(C)C)C(=O)N[C@@H](CC(=O)O)C(=O)N[C@@H](Cc1ccc(O)cc1)C(=O)N[C@@H](CCCN=C(N)N)C(=O)N[C@@H](CCCN=C(N)N)C(=O)N[C@H](C(=O)N[C@@H](Cc1c[nH]c2ccccc12)C(=O)O)[C@@H](C)CC` [IWWAKWGLKLLDYRRIW], the MIC was 8 µM (≈ 18.4 µg/mL) in the assay with Escherichia coli W3110 and no less than 128 µM in assay [21].

Consider `CC(C)C[C@H](NC(=O)[C@@H](NC(=O)[C@@H]1CCCN1C(=O)[C@H](C)NC(=O)[C@H](CCCCN)NC(=O)[C@H](Cc1c[nH]c2ccccc12)NC(=O)[C@H](CCC(N)=O)NC(=O)[C@@H]1CCCN1C(=O)[C@H](Cc1ccccc1)NC(=O)[C@H](Cc1ccc(O)cc1)NC(=O)[C@H](CCCCN)NC(=O)[C@H](CCCN=C(N)N)NC(=O)[C@H](C)NC(=O)[C@@H]1CCCN1C(=O)[C@H](CC(N)=O)NC(=O)[C@H](CC(C)C)NC(=O)[C@H](CC(N)=O)NC(=O)[C@H](Cc1cnc[nH]1)NC(=O)[C@H](CCCCN)NC(=O)[C@H](CCCCN)NC(=O)[C@H](CC(C)C)NC(=O)[C@H](Cc1ccccc1)NC(=O)[C@@H]1CCCN1)[C@@H](C)O)C(=O)O` [PFLKKHNLNPARKYFPQWKAPTL], for which the MIC was no less than 50 µM in assay [22]; greater than 50 µM in [23]; 12.5 µM (≈ 34.9 µg/mL) in assay [24]; no less than 50 µM against Listeria monocytogenes; no less than 50 µM in assay [25]; 25 µM (≈ 69.9 µg/mL) in assay [26]. For the same compound, the MIC in assay [19] was greater than 50 µM; in [20], 3.12 µM (≈ 8.72 µg/mL); in assay [14], greater than 50 µM; in assay [27], no less than 50 µM.

For `CC[C@H](C)[C@H](NC(=O)[C@@H]1CCCN1C(=O)[C@H](CCCN=C(N)N)NC(=O)[C@@H]1CCCN1C(=O)[C@H](CCCN=C(N)N)NC(=O)[C@@H]1CCCN1C(=O)[C@H](CC(C)C)NC(=O)[C@H](Cc1ccc(O)cc1)NC(=O)[C@@H]1CCCN1C(=O)[C@@H]1CCCN1C(=O)[C@H](CCCCN)NC(=O)[C@H](CC(=O)O)NC(=O)[C@@H](N)C(C)C)C(=O)N[C@@H](CCCN=C(N)N)C(=O)N[C@@H](CCCN=C(N)N)C(=O)N1CCC[C@H]1C(=O)NCC(=O)NCC(=O)N[C@@H](CCCN=C(N)N)C(N)=O` [VDKPPYLPRPRPIRRPGGR], the MIC in assay [28] is no less than 256 µM; in assay [29], 1 µM (≈ 2.23 µg/mL); in assay [30], no less than 512 µM; in [31], 2 µM (≈ 4.45 µg/mL); in [32], 4 µM and 2 µM; in [33] it was 2 µM (≈ 4.45 µg/mL). The MIC in assay [13] is no less than 256 µM; in the assay on Escherichia coli K88 it was 2 µM (≈ 4.45 µg/mL); in assay [9] it was greater than 512 µM; in assay [14], greater than 512 µM; in assay [34], 1 µM and 2 µM; in [35] it was no less than 256 µM.

The values above are taken from DBAASP.
